Laboratory results published in PMC3622084 (Biochemistry, 2013).
pEC50, pIC50: −log10 of the molar value.

Key:
Assay in all cases: Clark electrode O2 uptake, cytochrome c / ascorbate / TMPD
Type in all cases: biochemical
[1] = target: T1, Rhodobacter sphaeroides cytochrome c oxidase (RsCcO) (Cereibacter sphaeroides, UniProt P33517+Q03736, Q03736:E101A)
[2] = target: T1, Rhodobacter sphaeroides cytochrome c oxidase (RsCcO); remark: listed apart in the source
[3] = target: Rhodobacter sphaeroides cytochrome c oxidase (RsCcO) (Cereibacter sphaeroides, UniProt P33517+Q03736); conditions: read-out: K1/2; inhibition; 0.01% DDM, pH 7.4, 30 μM bovine cytochrome c
Rhodobacter sphaeroides cytochrome c oxidase (RsCcO) (Cereibacter sphaeroides, UniProt P33517+Q03736), sequence (P33517 whole entry): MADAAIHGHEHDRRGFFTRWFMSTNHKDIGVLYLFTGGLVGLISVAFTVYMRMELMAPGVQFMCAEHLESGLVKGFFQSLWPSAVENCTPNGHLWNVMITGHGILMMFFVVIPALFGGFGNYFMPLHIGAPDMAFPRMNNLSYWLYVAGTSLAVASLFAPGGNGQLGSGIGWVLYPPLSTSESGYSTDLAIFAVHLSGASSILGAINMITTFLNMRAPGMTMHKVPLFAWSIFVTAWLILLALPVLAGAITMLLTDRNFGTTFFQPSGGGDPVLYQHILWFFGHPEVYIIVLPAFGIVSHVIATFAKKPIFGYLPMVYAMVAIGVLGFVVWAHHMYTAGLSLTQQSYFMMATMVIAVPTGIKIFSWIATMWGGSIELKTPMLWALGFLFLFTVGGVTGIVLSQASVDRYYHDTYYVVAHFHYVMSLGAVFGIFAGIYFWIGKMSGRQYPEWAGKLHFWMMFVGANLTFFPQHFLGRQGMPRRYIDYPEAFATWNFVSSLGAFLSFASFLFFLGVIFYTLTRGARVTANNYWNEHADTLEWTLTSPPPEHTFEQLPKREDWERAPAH
Rhodobacter sphaeroides cytochrome c oxidase (RsCcO) (Cereibacter sphaeroides, UniProt P33517+Q03736), sequence (Q03736 26-303 limits assumed): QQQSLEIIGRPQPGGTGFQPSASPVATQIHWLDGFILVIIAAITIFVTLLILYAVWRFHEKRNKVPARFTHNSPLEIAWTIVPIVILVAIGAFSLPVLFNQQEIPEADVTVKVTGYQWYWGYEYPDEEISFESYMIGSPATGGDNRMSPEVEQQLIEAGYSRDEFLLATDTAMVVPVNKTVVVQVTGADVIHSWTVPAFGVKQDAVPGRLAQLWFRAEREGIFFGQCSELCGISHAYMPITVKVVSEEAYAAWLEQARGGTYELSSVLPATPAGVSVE

T1 sequence (P33517 whole entry): as the sequence (P33517 whole entry) above
T1 sequence (Q03736 26-303 E101A limits assumed): as the sequence (Q03736 26-303 limits assumed) above, with E76A counted along it

Molecule	pEC50 [1]	other results
C=CC1=C(C)/C(=C/c2[nH]c(Cc3[nH]c(/C=C4\NC(=O)C(C)=C4C=C)c(C)c3CCC(=O)O)c(CCC(=O)O)c2C)NC1=O [bilirubin]	~4.30	–
C[C@H](CCC(=O)O)[C@H]1CC[C@H]2[C@@H]3[C@H](O)C[C@@H]4C[C@H](O)CC[C@]4(C)[C@H]3C[C@H](O)[C@]12C [cholate]	3.70	–
CC(C)CCC[C@@H](C)[C@H]1CC[C@H]2[C@@H]3CC=C4C[C@@H](OC(=O)CCC(=O)O)CC[C@]4(C)[C@H]3CC[C@]12C [cholesteryl hemisuccinate]	~4.10	–
CCCCCCCC/C=C\CCCCCCCC(=O)OC[C@@H](O)COP(=O)([O-])OCC[N+](C)(C)C [lyso-oleoyl phosphatidylcholine]	–	pIC50 [2]: ~4.77
CC(C)CCCC(C)CCCC(C)CCCC(C)CC(=O)O (centres unmarked) [phytanic acid]	~5.40	–
C=CC1=C(C)c2cc3[nH]c(cc4nc(cc5[nH]c(cc1n2)c(C)c5CCC(=O)O)C(CCC(=O)O)=C4C)c(C)c3C=C [protoporphyrin IX]	~4.85	–
CC1=C(/C=C/C(C)=C/C=C/C(C)=C/C(=O)O)C(C)(C)CCC1 [retinoic acid]	~5.10	–
CHOBIMALT	–	pIC50 [3]: ~3.70
